Test results: patent publication US20200288710A1, “SUBSTITUTED SULPHONAMIDES FOR CONTROLLING ANIMAL PESTS” (BAYER CROPSCIENCE AKTIENGESELLSCHAFT, priority 2016, published 2020)

Key:
Myzus persicae [1] = assay: Myzus persicae spray test (Chinese cabbage leaf discs); assay type: in vivo; settings: foliar, 120 h, 500 g/ha, after 5-6 days, read-out: efficacy
Procedure: Myzus persicae—Spray Test Solvent: 78 parts by weight of acetone • • 1.5 parts by weight of dimethylformamide Emulsifier: alkylaryl polyglycol ether To produce a suitable preparation of active compound, 1 part by weight of active compound is dissolved using the specified parts by weight of solvent and made up with water containing an emulsifier concentration of 1000 ppm until the desired concentration is attained. To produce further test concentrations, the formulation is diluted with emulsifier-containing water. Discs of Chinese cabbage leaves (Brassica pekinensis) infested by all stages of the green peach aphid (Myzus persicae) are sprayed with an active compound preparation of the desired concentration. After 5-6 days, the efficacy in % is determined. 100% means that all the aphids have been killed; 0% means that no aphids have been killed.

Myzus persicae [2] = assay: Myzus persicae oral test; assay type: in vivo; settings: 120 h, 20 ppm, oral uptake, after 5 days, read-out: efficacy
Procedure: Myzus persicae—Oral Test Solvent: 100 parts by weight of acetone To produce a suitable preparation of active compound, 1 part by weight of active compound is dissolved using the specified parts by weight of solvent and made up with water until the desired concentration is attained. 50 μl of the active compound preparation are transferred into microtitre plates and made up to a final volume of 200 μl with 150 μl of IPL41 insect medium (33%+15% sugar). Subsequently, the plates are sealed with parafilm, which a mixed population of green peach aphids (Myzus persicae) within a second microtitre plate is able to puncture and imbibe the solution through it. After 5 days, the efficacy in % is determined. 100% means that all the aphids have been killed; 0% means that no aphids have been killed.

Cc1ccccc1-c1nc(C(=O)NS(=O)(=O)c2ccccc2C(F)(F)F)cn1C [Example 28]
pest or weed control at 500 g/ha (Myzus persicae [1]): 100%
pest or weed control at 20 ppm (Myzus persicae [2]): 100%

COc1ccccc1S(=O)(=O)NC(=O)c1cn(C)c(-c2c(F)cccc2F)n1 [Example 116]
pest or weed control at 500 g/ha (Myzus persicae [1]): 100%
pest or weed control at 20 ppm (Myzus persicae [2]): 100%

CCn1cc(C(=O)NS(=O)(=O)c2ccccc2Cl)nc1-c1c(F)cccc1F [Example 571]
pest or weed control at 500 g/ha (Myzus persicae [1]): 100%
pest or weed control at 20 ppm (Myzus persicae [2]): 100%

Cc1ccccc1S(=O)(=O)NC(=O)c1nc(-c2c(F)cccc2F)c(C)[nH]1 [Example 147]
pest or weed control at 500 g/ha (Myzus persicae [1]): 100%
pest or weed control at 20 ppm (Myzus persicae [2]): 100%

Cc1ccsc1S(=O)(=O)NC(=O)c1cn(C)c(-c2ncccc2Cl)n1 [Example 592]
pest or weed control at 500 g/ha (Myzus persicae [1]): 100%
pest or weed control at 20 ppm (Myzus persicae [2]): 100%

COc1ccccc1S(=O)(=O)NC(=O)c1cn(C)c(-c2cccnc2Cl)n1 [Example 492]
pest or weed control at 500 g/ha (Myzus persicae [1]): 100%
pest or weed control at 20 ppm (Myzus persicae [2]): 100%

CCc1ccsc1S(=O)(=O)NC(=O)c1cn(C)c(-c2ncccc2F)n1 [Example 604]
pest or weed control at 500 g/ha (Myzus persicae [1]): 90%
pest or weed control at 20 ppm (Myzus persicae [2]): 90%

COc1ccccc1S(=O)(=O)NC(=O)c1cn(C)c(-c2sccc2Cl)n1 [Example 549]
pest or weed control at 500 g/ha (Myzus persicae [1]): 100%
pest or weed control at 20 ppm (Myzus persicae [2]): 100%

COc1ccc(Cl)c(C)c1S(=O)(=O)NC(=O)c1cn(C)c(-c2c(F)cccc2F)n1 [Example 433]
pest or weed control at 500 g/ha (Myzus persicae [1]): 90%
pest or weed control at 20 ppm (Myzus persicae [2]): 100%

COc1cccc(S(=O)(=O)NC(=O)c2cn(C)c(-c3c(F)cccc3F)n2)c1 [Example 388]
pest or weed control at 500 g/ha (Myzus persicae [1]): 90%
pest or weed control at 20 ppm (Myzus persicae [2]): 100%

Cn1cc(C(=O)NS(=O)(=O)c2c(Cl)cccc2Br)nc1-c1ncccc1Cl [Example 589]
pest or weed control at 500 g/ha (Myzus persicae [1]): 100%
pest or weed control at 20 ppm (Myzus persicae [2]): 100%

CCc1ccc(OC)c(S(=O)(=O)NC(=O)c2cn(C)c(-c3ccccc3Cl)n2)c1 [Example 278]
pest or weed control at 500 g/ha (Myzus persicae [1]): 100%
pest or weed control at 20 ppm (Myzus persicae [2]): 100%

COc1cccc(F)c1S(=O)(=O)NC(=O)c1cn(C)c(-c2c(F)cccc2F)n1 [Example 381]
pest or weed control at 500 g/ha (Myzus persicae [1]): 100%
pest or weed control at 20 ppm (Myzus persicae [2]): 100%

CCc1cccc(OS(C)(=O)=O)c1S(=O)(=O)NC(=O)c1cn(C)c(-c2c(F)cccc2F)n1 [Example 342]
pest or weed control at 500 g/ha (Myzus persicae [1]): 100%
pest or weed control at 20 ppm (Myzus persicae [2]): 100%

Cc1ccccc1S(=O)(=O)NC(=O)c1cn(C)c(-c2c(F)cccc2Cl)n1 [Example 110]
pest or weed control at 500 g/ha (Myzus persicae [1]): 90%
pest or weed control at 20 ppm (Myzus persicae [2]): 100%

Cn1cc(C(=O)NS(=O)(=O)c2ccccc2Cl)nc1-c1ccccc1C(F)(F)F [Example 115]
pest or weed control at 500 g/ha (Myzus persicae [1]): 100%
pest or weed control at 20 ppm (Myzus persicae [2]): 90%

COc1ccc(Cl)c(S(=O)(=O)NC(=O)c2cc(C)n(-c3ncccc3Br)n2)c1 [Example 301]
pest or weed control at 500 g/ha (Myzus persicae [1]): 100%
pest or weed control at 20 ppm (Myzus persicae [2]): 90%

COc1ccc(Cl)c(S(=O)(=O)NC(=O)c2nc(-c3c(F)cccc3F)n(C)n2)c1 [Example 12]
pest or weed control at 500 g/ha (Myzus persicae [1]): 90%
pest or weed control at 20 ppm (Myzus persicae [2]): 90%

Cc1ccccc1S(=O)(=O)NC(=O)c1cc(C)n(-c2ncccc2Br)n1 [Example 297]
pest or weed control at 500 g/ha (Myzus persicae [1]): 90%
pest or weed control at 20 ppm (Myzus persicae [2]): 100%

Cn1nc(C(=O)NS(=O)(=O)c2ccccc2Cl)nc1-c1c(F)cccc1F [Example 11]
pest or weed control at 500 g/ha (Myzus persicae [1]): 100%
pest or weed control at 20 ppm (Myzus persicae [2]): 100%

COc1ccc(Cl)c(S(=O)(=O)NC(=O)c2cn(C)c(-c3ccccc3F)n2)c1 [Example 95]
pest or weed control at 500 g/ha (Myzus persicae [1]): 90%
pest or weed control at 20 ppm (Myzus persicae [2]): 100%

Cn1cc(C(=O)NS(=O)(=O)c2ccccc2C(F)(F)F)nc1-c1c(F)cccc1F [Example 26]
pest or weed control at 500 g/ha (Myzus persicae [1]): 100%
pest or weed control at 20 ppm (Myzus persicae [2]): 100%

Cn1cc(C(=O)NS(=O)(=O)c2ccccc2F)nc1-c1c(F)cccc1F [Example 117]
pest or weed control at 500 g/ha (Myzus persicae [1]): 100%
pest or weed control at 20 ppm (Myzus persicae [2]): 90%

Cc1cc(C(=O)NS(=O)(=O)c2c(Cl)cccc2Cl)nn1-c1ncccc1Cl [Example 268]
pest or weed control at 500 g/ha (Myzus persicae [1]): 90%
pest or weed control at 20 ppm (Myzus persicae [2]): 100%

Cc1ccc(F)c(S(=O)(=O)NC(=O)c2cn(C)c(-c3c(F)cccc3F)n2)c1 [Example 454]
pest or weed control at 500 g/ha (Myzus persicae [1]): 90%
pest or weed control at 20 ppm (Myzus persicae [2]): 100%

Cc1ccc(F)cc1S(=O)(=O)NC(=O)c1cn(C)c(-c2ncccc2F)n1 [Example 562]
pest or weed control at 500 g/ha (Myzus persicae [1]): 100%
pest or weed control at 20 ppm (Myzus persicae [2]): 100%

COc1ccccc1S(=O)(=O)NC(=O)c1cn(C)c(-c2c(F)cc(F)cc2F)n1 [Example 7]
pest or weed control at 500 g/ha (Myzus persicae [1]): 90%
pest or weed control at 20 ppm (Myzus persicae [2]): 90%

Cn1c(C(=O)NS(=O)(=O)c2ccccc2Br)cnc1-c1c(F)cccc1F [Example 162]
pest or weed control at 500 g/ha (Myzus persicae [1]): 90%
pest or weed control at 20 ppm (Myzus persicae [2]): 100%

COc1ccc(F)cc1S(=O)(=O)NC(=O)c1cn(C)c(-c2ncccc2Cl)n1 [Example 591]
pest or weed control at 500 g/ha (Myzus persicae [1]): 100%
pest or weed control at 20 ppm (Myzus persicae [2]): 100%

CCn1cc(S(=O)(=O)NC(=O)c2cn(C)c(-c3c(F)cccc3F)n2)c(C)n1 [Example 181]
pest or weed control at 500 g/ha (Myzus persicae [1]): 100%
pest or weed control at 20 ppm (Myzus persicae [2]): 90%

COc1ccc(C)cc1S(=O)(=O)NC(=O)c1cn(C)c(-c2c(F)cccc2F)n1 [Example 390]
pest or weed control at 500 g/ha (Myzus persicae [1]): 100%
pest or weed control at 20 ppm (Myzus persicae [2]): 100%

COc1cc(C)ccc1S(=O)(=O)NC(=O)c1cn(C)c(-c2c(F)cccc2F)n1 [Example 447]
pest or weed control at 500 g/ha (Myzus persicae [1]): 90%
pest or weed control at 20 ppm (Myzus persicae [2]): 100%

COc1ccc(Cl)c(S(=O)(=O)NC(=O)c2nc(-c3c(F)cccc3F)c(C)[nH]2)c1 [Example 148]
pest or weed control at 500 g/ha (Myzus persicae [1]): 90%
pest or weed control at 20 ppm (Myzus persicae [2]): 100%

Cn1cc(C(=O)NS(=O)(=O)c2ccccc2Cl)nc1-c1ccccc1OC(F)(F)F [Example 459]
pest or weed control at 500 g/ha (Myzus persicae [1]): 90%
pest or weed control at 20 ppm (Myzus persicae [2]): 100%

Cc1ccccc1S(=O)(=O)NC(=O)c1cn(C)c(-c2cccnc2Cl)n1 [Example 491]
pest or weed control at 500 g/ha (Myzus persicae [1]): 100%
pest or weed control at 20 ppm (Myzus persicae [2]): 100%

Cn1cc(C(=O)NS(=O)(=O)c2ccccc2)nc1-c1c(F)cccc1Cl [Example 112]
pest or weed control at 500 g/ha (Myzus persicae [1]): 90%
pest or weed control at 20 ppm (Myzus persicae [2]): 100%

COc1ccc(F)c(S(=O)(=O)NC(=O)c2cn(C)c(-c3c(F)cccc3Cl)n2)c1 [Example 157]
pest or weed control at 500 g/ha (Myzus persicae [1]): 100%
pest or weed control at 20 ppm (Myzus persicae [2]): 100%

COc1ccc(Br)cc1S(=O)(=O)NC(=O)c1cn(C)c(-c2cccc(Cl)c2Cl)n1 [Example 559]
pest or weed control at 500 g/ha (Myzus persicae [1]): 100%
pest or weed control at 20 ppm (Myzus persicae [2]): 100%

CCn1cc(C(=O)NS(=O)(=O)c2ccccc2OC)nc1-c1c(F)cccc1F [Example 569]
pest or weed control at 500 g/ha (Myzus persicae [1]): 100%
pest or weed control at 20 ppm (Myzus persicae [2]): 100%

Cn1cc(C(=O)NS(=O)(=O)c2ccccc2Cl)nc1-c1ncccc1Br [Example 578]
pest or weed control at 500 g/ha (Myzus persicae [1]): 100%
pest or weed control at 20 ppm (Myzus persicae [2]): 100%

Cn1cc(C(=O)NS(=O)(=O)c2ccccc2Cl)nc1-c1ccccc1S(C)(=O)=O [Example 483]
pest or weed control at 500 g/ha (Myzus persicae [1]): 90%
pest or weed control at 20 ppm (Myzus persicae [2]): 100%

CCn1cc(C(=O)NS(=O)(=O)c2ccccc2C)nc1-c1ccccc1Cl [Example 22]
pest or weed control at 500 g/ha (Myzus persicae [1]): 100%
pest or weed control at 20 ppm (Myzus persicae [2]): 100%

Cn1cc(C(=O)NS(=O)(=O)c2cnccc2Cl)nc1-c1ccccc1Cl [Example 220]
pest or weed control at 500 g/ha (Myzus persicae [1]): 100%
pest or weed control at 20 ppm (Myzus persicae [2]): 100%

CCn1cc(C(=O)NS(=O)(=O)c2ccccc2C)nc1-c1c(F)cccc1F [Example 570]
pest or weed control at 500 g/ha (Myzus persicae [1]): 100%
pest or weed control at 20 ppm (Myzus persicae [2]): 100%

Cn1cc(C(=O)NS(=O)(=O)c2ccccc2F)nc1-c1ccccc1Cl [Example 57]
pest or weed control at 500 g/ha (Myzus persicae [1]): 100%
pest or weed control at 20 ppm (Myzus persicae [2]): 100%

Cn1cc(C(=O)NS(=O)(=O)c2ccccc2Cl)nc1-c1ccccc1[N+](=O)[O-] [Example 524]
pest or weed control at 500 g/ha (Myzus persicae [1]): 90%
pest or weed control at 20 ppm (Myzus persicae [2]): 100%

COc1ccc(OC)c(S(=O)(=O)NC(=O)c2cn(C)c(-c3c(F)cccc3F)n2)c1 [Example 19]
pest or weed control at 500 g/ha (Myzus persicae [1]): 90%
pest or weed control at 20 ppm (Myzus persicae [2]): 100%

COc1ccc(F)c(S(=O)(=O)NC(=O)c2cn(C)c(-c3c(F)cccc3F)n2)c1 [Example 170]
pest or weed control at 500 g/ha (Myzus persicae [1]): 90%
pest or weed control at 20 ppm (Myzus persicae [2]): 100%

CCc1[nH]c(-c2c(F)cccc2F)nc1C(=O)NS(=O)(=O)C(C)C [Example 126]
pest or weed control at 500 g/ha (Myzus persicae [1]): 90%
pest or weed control at 20 ppm (Myzus persicae [2]): 90%

CCS(=O)(=O)NC(=O)c1cn(-c2ccccc2)c(-c2ccccc2Cl)n1 [Example 75]
pest or weed control at 500 g/ha (Myzus persicae [1]): 100%
pest or weed control at 20 ppm (Myzus persicae [2]): 90%

Cc1ccc(F)cc1S(=O)(=O)NC(=O)c1cn(C)c(-c2cccnc2Cl)n1 [Example 566]
pest or weed control at 500 g/ha (Myzus persicae [1]): 100%
pest or weed control at 20 ppm (Myzus persicae [2]): 100%

COc1cc(C)c(S(=O)(=O)NC(=O)c2cn(C)c(-c3c(F)cccc3F)n2)cc1C [Example 138]
pest or weed control at 500 g/ha (Myzus persicae [1]): 100%

COc1cccc(C(F)(F)F)c1S(=O)(=O)NC(=O)c1cn(C)c(-c2c(F)cccc2F)n1 [Example 374]
pest or weed control at 500 g/ha (Myzus persicae [1]): 100%

Cn1cc(C(=O)NS(=O)(=O)CC(F)(F)F)nc1-c1c(Cl)cccc1Cl [Example 80]
pest or weed control at 500 g/ha (Myzus persicae [1]): 90%

Cc1ccccc1S(=O)(=O)NC(=O)c1cn(C)c(-c2cccnc2)n1 [Example 488]
pest or weed control at 500 g/ha (Myzus persicae [1]): 90%
